Results reported in US20240254087A1, “SELECTIVE, PARTIAL, AND ARRESTIN-BIASED 5-HT2A AGONISTS WITH UTILITY IN VARIOUS DISORDERS” (Saint Joseph's University, priority 2021, published 2024).
Where two headings read alike, the source gives them in different places.

Tests used:
[1] = molecular target: T1, 5-HT2A (Homo sapiens, UniProt P28223); experiment: [3H]-ketanserin displacement, 5-HT2A membranes; format: binding; parameters: ES-313-M400UA (membranes); host or cells: CHO-K1; conditions: [3H]-ketanserin displacement (n = 2); read-out: 5-HT2A pKi Mean ± SEM (converted)
T1 sequence (P28223 whole entry): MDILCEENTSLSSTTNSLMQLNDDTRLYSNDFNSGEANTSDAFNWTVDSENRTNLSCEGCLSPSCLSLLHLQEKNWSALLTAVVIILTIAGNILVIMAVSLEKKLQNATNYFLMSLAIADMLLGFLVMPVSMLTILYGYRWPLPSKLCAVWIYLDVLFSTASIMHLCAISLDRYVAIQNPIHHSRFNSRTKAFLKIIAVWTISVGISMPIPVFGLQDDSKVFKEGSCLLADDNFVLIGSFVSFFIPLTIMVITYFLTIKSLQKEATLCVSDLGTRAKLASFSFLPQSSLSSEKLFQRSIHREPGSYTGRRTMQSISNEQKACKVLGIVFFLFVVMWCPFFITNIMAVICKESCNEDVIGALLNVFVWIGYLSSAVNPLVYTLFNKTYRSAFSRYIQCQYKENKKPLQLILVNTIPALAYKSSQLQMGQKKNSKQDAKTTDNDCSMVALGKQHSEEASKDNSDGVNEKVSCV

[2] = molecular target: T1, 5-HT2A; experiment: cell-based; parameters: expressed in transfected cells; host or cells: HEK293T, transient; conditions: for Emax: read-out: 5-HT2A Gq Emax (% 5-HT), BRET, mean ± SEM
[3] = molecular target: T1, 5-HT2A; experiment: cell-based; parameters: expressed in transfected cells; host or cells: HEK293T, transient; conditions: for Emax: read-out: 5-HT2A β-arrestin Emax (% 5-HT), BRET, mean ± SEM
[4] = BRET, mean ± SEM, read-out: 5-HT2A Gq dissociation pEC50 (converted)
[5] = BRET, mean ± SEM, read-out: 5-HT2A β-arrestin recruitment pEC50 (converted)

Row | SMILES | Ki [1] | EC50 [2, 4] | Emax [2] | EC50 [3, 5] | Emax [3] | 5-HT2A Gq dissociation pEC50 ([2]; BRET, mean ± SEM) | EC50 [3] | EC50 [2]
1 | COc1cc(OC)c(OC)cc1CCNCc1cccc(C(C)(C)C)c1 [(71)] | 380 nM | 1620 nM | 38.6 ± 5% | 1620 nM | 60.4 ± 5.2% | – | – | –
2 | COc1cc(OC)c(OC)cc1CCNCc1cccc(I)c1F [(72)] | 49 nM | 33.9 nM | 60.7 ± 1.7% | 7.08 nM | 63.5 ± 3.2% | – | – | –
3 | COc1cc(OC)c(OC)cc1CCNCc1cccc2ccsc12 [(73), N-(benzo[b]thiophen-7-ylmethyl)-2-(2,4,5-trimethoxyphenyl)-ethan-1-amine] | 29.5 nM | – | – | – | – | – | – | –
4 | COc1cc(OC)c(OC)cc1CCNCc1cccc2c1oc1ccccc12 [(74), N-(dibenzo-[b, d]-furan-4-ylmethyl)-2-(2,4,5-trimethoxyphenyl)-ethan-1-amine] | 67.6 nM | 81.3 nM | 40.2 ± 1.9% | 16.2 nM | 68.3 ± 3.4% | – | – | –
5 | COc1cc(OC)c(OC)cc1CCNCc1ccc(-c2ccccc2)o1 [(75)] | 309 nM | – | < 10% | – | 50.3 ± 4.7% | No activity | 891 nM | –
6 | COc1cc(OC)c(OC)cc1CCNCc1ccc(-c2ccccc2)s1 [(76), N-((5-phenylthiophen-2-yl)methyl)-2-(2,4,5-trimethoxyphenyl)-ethan-1-amine] | 447 nM | – | 57.4 ± 4.6% | 91.2 nM | 78 ± 4% | – | – | 1070 nM
7 | COc1cc(OC)c(OC)cc1CCNCc1ccc(-c2cccs2)s1 [(77)] | 324 nM | – | 49 ± 5.1% | – | 82.5 ± 4.2% | – | – | –
8 | COc1cc(OC)c(OC)cc1CCNCc1cccc(OCc2ccccc2)c1 [(78)] | 251 nM | – | 32.8 ± 4.5% | – | 50.3 ± 4.1% | – | – | –
